This passage reports AC50, EC50 and IC50 results from ChEMBL document CHEMBL1201862, “PubChem BioAssay data set” (2004).

“And” between values parts separate entries of the source, which are not always exact repeats. Identical values can stand only once. The source made the active and inactive calls.

In one series the target is T1, Cytochrome P450 1A2 (Homo sapiens, UniProt P05177).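 Note: PubChem cytochrome P450 panel assay, CYP1A2 panel member.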
T1 sequence (P05177 whole entry): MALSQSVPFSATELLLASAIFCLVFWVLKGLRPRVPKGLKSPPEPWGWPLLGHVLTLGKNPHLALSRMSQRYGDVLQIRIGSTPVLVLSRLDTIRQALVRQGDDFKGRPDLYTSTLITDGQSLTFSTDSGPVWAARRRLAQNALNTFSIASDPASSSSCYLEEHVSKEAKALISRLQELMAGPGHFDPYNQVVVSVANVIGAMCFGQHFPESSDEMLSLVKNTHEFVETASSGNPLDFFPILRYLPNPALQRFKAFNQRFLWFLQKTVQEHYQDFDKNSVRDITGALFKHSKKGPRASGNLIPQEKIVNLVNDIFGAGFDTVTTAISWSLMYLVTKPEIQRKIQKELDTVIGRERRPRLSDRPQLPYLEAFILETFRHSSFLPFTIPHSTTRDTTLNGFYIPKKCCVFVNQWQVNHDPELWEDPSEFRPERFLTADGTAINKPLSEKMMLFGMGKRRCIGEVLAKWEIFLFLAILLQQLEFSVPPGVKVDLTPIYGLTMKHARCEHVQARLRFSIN

The target of the next series is Cytochrome P450 2C9 (Homo sapiens, UniProt P11712).
Sequence of Cytochrome P450 2C9 (P11712 whole entry): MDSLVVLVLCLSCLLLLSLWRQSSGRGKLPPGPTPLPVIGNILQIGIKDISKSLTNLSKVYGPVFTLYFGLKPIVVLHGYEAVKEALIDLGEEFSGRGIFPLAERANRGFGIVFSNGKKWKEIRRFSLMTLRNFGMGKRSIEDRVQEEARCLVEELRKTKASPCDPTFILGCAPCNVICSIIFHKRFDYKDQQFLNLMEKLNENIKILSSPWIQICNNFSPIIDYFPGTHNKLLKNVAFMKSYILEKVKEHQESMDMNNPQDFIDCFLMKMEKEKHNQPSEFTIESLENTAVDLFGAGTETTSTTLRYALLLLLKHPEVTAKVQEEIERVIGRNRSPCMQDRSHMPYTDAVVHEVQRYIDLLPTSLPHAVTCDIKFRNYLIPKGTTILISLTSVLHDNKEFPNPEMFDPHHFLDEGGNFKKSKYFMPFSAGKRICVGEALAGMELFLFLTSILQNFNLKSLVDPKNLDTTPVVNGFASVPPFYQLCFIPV
The subject of the next series is INS1. Put plainly: beta cell apoptosis inhibitors, cytokine rescue, dose response, luminescence, retest (AID 449756).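 Note: cell death triggered by IL-1 beta plus TNF-alpha plus IFN-gamma mixture; protective hits raise ATP signal compared with cytokine alone wells.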 The series is classed as functional, cell-based. To be noted: Rattus norvegicus.
The next series concerns the target Cytochrome P450 3A4 (Homo sapiens, UniProt P08684).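 Note: CYP3A4 tested as one member of a cytochrome P450 panel screen.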
Series [1] addresses T2, Heat shock factor protein 1 (Mus musculus, UniProt P38532).
T2 sequence (P38532 whole entry): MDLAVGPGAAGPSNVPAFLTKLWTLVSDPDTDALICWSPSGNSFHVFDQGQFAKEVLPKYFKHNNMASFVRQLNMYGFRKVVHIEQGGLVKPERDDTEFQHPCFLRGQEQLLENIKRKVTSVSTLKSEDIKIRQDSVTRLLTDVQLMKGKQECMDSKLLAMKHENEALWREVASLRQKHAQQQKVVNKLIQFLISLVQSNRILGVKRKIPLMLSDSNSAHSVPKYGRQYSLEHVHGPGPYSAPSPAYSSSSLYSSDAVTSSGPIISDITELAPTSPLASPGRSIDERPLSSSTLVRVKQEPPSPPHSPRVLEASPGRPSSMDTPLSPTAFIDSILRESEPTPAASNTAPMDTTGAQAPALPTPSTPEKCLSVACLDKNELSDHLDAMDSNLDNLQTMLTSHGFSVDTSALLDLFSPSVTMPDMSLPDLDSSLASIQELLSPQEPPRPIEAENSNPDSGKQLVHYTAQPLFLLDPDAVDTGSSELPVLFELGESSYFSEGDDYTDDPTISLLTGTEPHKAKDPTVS
The series is described as follows: inhibition of MG132-induced HSE-luciferase signal, confirmation, cell-based, NIH3T3, luminescence, dose retest (AID 2382).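 Note: NIH3T3 fibroblasts with HSF1-driven luciferase reporter stressed by proteasome inhibitor MG132; luminescence from HSF1-driven luciferase expression after 8 hours of MG132 stress.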 The series is classed as functional.

Another series has as its target Cytochrome P450 2C19 (Homo sapiens, UniProt P33261). Put plainly: Cytochrome panel assay with activity outcomes. Panel member name: p450-cyp2c19 Compounds with AC50 equal or less than 10 uM are considered active. It counts as functional.
A short description of series [2]: Luminescence Cell-Based Dose Response HTS to Identify Activators of Luciferase Translation or Activity in H4 […] Cells. [Related pubchem assays: 1829 (Project Summary), 1814 (Primary HTS)]. It counts as functional.
The test system of the next series is H4. The series is described as follows: Luminescence Cell-Based Dose Response HTS to Identify Activators of 5'UTR Stem-Loop Driven Prion Protein mRNA Translation in H4 Neuroglioblastoma Cells. [Related pubchem assays: 1829 (Project Summary), 1814 (Primary HTS)]. The settings on record: Homo sapiens. The series is classed as functional.
A short description of series [3]: inhibitors of intracellular T. cruzi replication, confirmation, NIH3T3 host cells, beta-gal luminescence (AID 2044).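 Note: intracellular parasites grown in NIH/3T3 mouse fibroblasts as host cells; luminescent beta-galactosidase reporter signal from transgenic T. cruzi replicating inside host cells; inhibitors lower the luminescence signal.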 The series is classed as functional, cell-based.
The nature of series [4]: cytotoxicity toward NIH3T3 fibroblasts, dose response, counter-screen, cell-based, ATP luminescence, mouse fibroblasts (AID 2010).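 Note: cells exposed to compound for about 90 hours before reading.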 It counts as functional.
Series [5] addresses T3, Rac GTPase-activating protein 1 (Homo sapiens, UniProt Q9H0H5).
T3 sequence (Q9H0H5 whole entry): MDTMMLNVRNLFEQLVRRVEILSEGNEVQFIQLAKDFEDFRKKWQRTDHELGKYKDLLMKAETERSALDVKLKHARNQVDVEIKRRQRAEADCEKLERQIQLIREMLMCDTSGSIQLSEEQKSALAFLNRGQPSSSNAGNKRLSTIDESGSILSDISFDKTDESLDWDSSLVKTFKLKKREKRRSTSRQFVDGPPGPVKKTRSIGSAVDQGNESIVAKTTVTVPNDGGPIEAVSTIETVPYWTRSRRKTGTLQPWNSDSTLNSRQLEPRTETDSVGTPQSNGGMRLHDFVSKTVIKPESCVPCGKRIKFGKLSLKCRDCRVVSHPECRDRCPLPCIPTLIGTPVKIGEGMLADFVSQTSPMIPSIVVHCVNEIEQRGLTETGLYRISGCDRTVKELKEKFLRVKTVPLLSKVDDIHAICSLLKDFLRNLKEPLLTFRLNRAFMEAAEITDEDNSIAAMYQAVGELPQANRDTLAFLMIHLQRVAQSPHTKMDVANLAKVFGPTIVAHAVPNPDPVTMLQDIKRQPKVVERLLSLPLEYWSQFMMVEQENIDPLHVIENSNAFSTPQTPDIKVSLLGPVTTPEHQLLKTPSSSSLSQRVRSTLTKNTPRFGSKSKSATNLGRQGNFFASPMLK
The series is described as follows: MgcRacGAP GTPase-activating activity inhibitors, confirmation, biochemical, ADP Hunter fluorescence, primary and confirmatory (AID 624330). The series is classed as functional.

Sequence of Cytochrome P450 2C19 (P33261 whole entry): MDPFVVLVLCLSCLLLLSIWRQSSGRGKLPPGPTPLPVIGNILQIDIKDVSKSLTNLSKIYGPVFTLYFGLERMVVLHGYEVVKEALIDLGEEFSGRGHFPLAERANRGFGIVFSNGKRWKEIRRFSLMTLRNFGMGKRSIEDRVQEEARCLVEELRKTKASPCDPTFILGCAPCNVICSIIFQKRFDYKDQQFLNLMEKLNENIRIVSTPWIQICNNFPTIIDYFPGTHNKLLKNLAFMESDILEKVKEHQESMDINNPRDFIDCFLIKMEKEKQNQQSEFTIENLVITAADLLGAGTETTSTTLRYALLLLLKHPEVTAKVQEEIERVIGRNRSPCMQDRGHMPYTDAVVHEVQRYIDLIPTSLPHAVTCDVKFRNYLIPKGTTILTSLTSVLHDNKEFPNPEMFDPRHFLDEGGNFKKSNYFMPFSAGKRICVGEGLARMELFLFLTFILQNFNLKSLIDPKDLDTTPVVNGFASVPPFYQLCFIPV
Sequence of Cytochrome P450 3A4 (P08684 whole entry): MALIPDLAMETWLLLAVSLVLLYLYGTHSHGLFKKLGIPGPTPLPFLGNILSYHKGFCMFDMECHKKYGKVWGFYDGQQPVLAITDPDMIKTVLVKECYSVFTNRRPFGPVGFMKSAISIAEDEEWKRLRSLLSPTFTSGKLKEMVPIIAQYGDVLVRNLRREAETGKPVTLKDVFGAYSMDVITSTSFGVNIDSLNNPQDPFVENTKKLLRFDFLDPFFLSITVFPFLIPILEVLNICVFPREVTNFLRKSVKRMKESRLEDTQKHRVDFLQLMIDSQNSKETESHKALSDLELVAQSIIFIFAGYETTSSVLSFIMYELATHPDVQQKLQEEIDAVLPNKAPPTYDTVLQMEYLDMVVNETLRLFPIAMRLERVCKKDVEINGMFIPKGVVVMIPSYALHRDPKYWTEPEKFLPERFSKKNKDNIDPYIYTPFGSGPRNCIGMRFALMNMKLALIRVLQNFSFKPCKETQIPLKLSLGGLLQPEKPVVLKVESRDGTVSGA

Regarding `NCCCCCCNS(=O)(=O)c1cccc2ccccc12`, the values for the AC50 at Cytochrome P450 1A2 and at Cytochrome P450 2C9 were 25.1 µM (inconclusive) and 0.2 µM (inconclusive), respectively.
Consider `CN1N=C(C(C)(C)C)CS/C1=N/c1ccccc1`, for which, in the series with INS1, the AC50 was > 260 µM (inactive).
On to `CCOc1ccc(OCC)c(-c2c(=O)n(OCc3ccc(C(C)(C)C)cc3)c3ccccc3[n+]2[O-])c1`, for which, on Cytochrome P450 3A4, the AC50 is 12.6 µM (inconclusive).
On to `CC1CCN(C2=NC(=O)/C(=C/c3ccccc3F)S2)CC1`, for which the EC50 in [1] is recorded as > 195 µM (not active).
For the compound `O=[N+]([O-])c1ccc2nc(N3CCNCC3)ccc2c1` [6-NITROQUIPAZINE], the AC50 result was “inconclusive” at Cytochrome P450 2C19 and 10 µM (inconclusive) at Cytochrome P450 3A4.
In the case of `O=S(=O)(Nc1ccc2c(c1)OCCO2)c1cccc2nsnc12`, the EC50 in [1] was 4.32 µM (active).
`COc1cccc(Cn2c(=O)c(CCc3ccccc3)nc3cnc(N(C)C)nc32)c1`: the AC50 on Cytochrome P450 3A4 was 2.51 µM (inconclusive).
Still for that read-out and setting: to `c1ccc([C@H]2CNCc3ccccc32)cc1` belongs 15.8 µM (inconclusive).
Take `CN(C)c1ccc(NC(S)=NC23CC4CC(CC(C4)C2)C3)cc1`: the values for the EC50 (in series [2]; in the series on H4) were 20.6 µM (active) and 17.1 µM (active), respectively. In the series on INS1, the AC50 is 83.2 µM (active).
As for `CCOC(=O)C1C(=O)OC(C)(C)C1C(C)C(=O)c1ccc(C)cc1` (centres undefined), in series [1], the EC50 is given as > 195 µM (not active).
With `COc1cc(/C=C2/C(=N)N3OC(C)=CC3=NC2=O)ccc1OCCOc1ccc(C)cc1`, the AC50 was 4.47 µM (inconclusive) on Cytochrome P450 2C19 (read-out: AC50) and 11.2 µM (inconclusive) on Cytochrome P450 3A4.
Regarding `O=C(COc1ccccc1)Nc1ccc(-c2nnc(-c3ccco3)o2)cc1`, the AC50 on Cytochrome P450 2C19 (read-out: AC50) is 10 µM (inconclusive); at Cytochrome P450 2C9 it was 1.78 µM (inconclusive).
`O=C(COc1ccc(F)cc1)Nc1cc(Cl)ccc1-n1cncn1`: the EC50 in series [1] is on record as > 195 µM (not active).
Turning to `Cc1c(NC(=O)C23CC4CC(CC(C)(C4)C2)C3)c(=O)n(-c2ccccc2)n1C`, the AC50 result is “inconclusive” at Cytochrome P450 2C19 and 31.6 µM (inconclusive) at Cytochrome P450 3A4.
On to `O=C(CC1C(=O)NCCN1Cc1ccc(-c2ccccc2)cc1)NC1CCC1` (centres undefined), for which the AC50 with INS1 was > 260 µM (inactive).
On to `O=C(Cc1ccccc1)Nc1nc2ccccc2s1`, for which, in series [1], the EC50 was > 195 µM (not active).
The same measure, in the same setting: to `CC(C)(C)C(=O)/C=C/c1ccc(Oc2ccccc2)cc1` belongs > 195 µM (not active).
With `COc1ccc(C2CC(c3cccc(C)c3)n3nc(N)nc3N2)cc1` (centres undefined), in the series on INS1, the AC50 is > 260 µM (inactive).
Turning to `O=C1C(/C=C(\O)c2ccccc2)=NCC2c3ccccc3CCN12` (centres undefined), the values for the EC50 (in series [2]; with H4) were 0.491 µM (active) and 8.18 µM (active), respectively.
Take `COc1ccc(NC(=O)N2CC[C@@]3(CCCN(C(=O)c4cccc(F)c4)C3)C2)cc1`: the figures for the AC50 on Cytochrome P450 1A2 and on Cytochrome P450 3A4 were 25.1 µM (inconclusive) and 15.8 µM (inconclusive), respectively.
For the compound `O=C1C2CCCN2C(c2ccccc2F)N1c1ccc(Cl)cc1` (centres undefined), the results for the AC50 on Cytochrome P450 1A2, on Cytochrome P450 3A4 and on Cytochrome P450 2C9 were 2 µM (inconclusive), 14.1 µM (inconclusive) and 39.8 µM (inconclusive), respectively.
As for `C=C1C(=O)O[C@@H]2[C@@H]1CC/C(C)=C\CC[C@@]1(C)O[C@H]21`, on Cytochrome P450 3A4, the AC50 is 20 µM (inconclusive) and 12.6 µM (inconclusive).
In the case of `CSCCC(NC(=O)CCC(=O)OCC(=O)[C@@]1(O)CCC2[C@@H]3CCC4=CC(=O)C=C[C@]4(C)C3[C@@H](O)C[C@@]21C)C(=O)O` (some centres undefined), in [1], the EC50 is 0.216 µM (active).
On to `O=C(NCc1ccco1)C(=O)NCC(c1ccco1)N1CCOCC1` (centres undefined), for which the EC50 in series [1] was > 195 µM (not active).
Take `CC(=O)/C=C1\N(C)c2ccc(C)cc2C1(C)C`: the EC50 was 1.93 µM (active) in [3] and > 60 µM (not active) in [4]. The AC50 in the series on INS1 is 5.32 µM (active).
As for `O=[N+]([O-])c1ccc2c(c1)N=C1O[C@H](c3c[nH]c4ccc(COc5ccccc5)cc34)C(O)=C1N2`, the half-maximal activity concentration (AC50) at Cytochrome P450 2C19 (read-out: AC50) and at Cytochrome P450 3A4 was 3.16 µM (inconclusive) each time.
For the compound `NC(=NOC(=O)Cc1ccccc1[N+](=O)[O-])c1cccnc1`, the EC50 in series [1] is listed as > 195 µM (not active).
Regarding `Fc1ccc(C(OCCN2CCN(C/C=C\c3ccccc3)CC2)c2ccc(F)cc2)cc1`, the figures for the AC50 at Cytochrome P450 1A2 and at Cytochrome P450 3A4 were 31.6 µM (inconclusive) and 15.8 µM (inconclusive), respectively.
Take `Cc1ccc(NC(=O)NC(=O)CN2CCN(c3ccc(O)cc3)CC2)c(C)c1`: the EC50 in [1] is > 195 µM (not active). Further, the IC50 in series [5] was 64.9 µM (active).
For `COc1cc(OC)cc(C(=O)NCC(=O)OCc2nc3ccccc3s2)c1`, the EC50 in series [2] was 14.6 µM (active); with H4, 0.165 µM (active).
In the same order, the values of `O=C(COC(=O)/C=C/c1ccccc1[N+](=O)[O-])Nc1ccc(OCc2ccccc2)cc1` are 4.21 µM (active) and 40.1 µM (active).
